Like-named read-outs stand apart in the source and are kept apart here.
Target: T1, E. coli DdlB enzyme (D-alanine:D-alanine ligase) (Escherichia coli, UniProt P07862)
T1 construct: made in house; host or cells: E. coli
Assay: biochemical
Settings: for remaining activity at 1900 µM: tested concentration 1.9 mM; for remaining activity at 500 µM: at 0.5 mM; for remaining activity at 1000 µM: at 1 mM; for remaining activity at 1500 µM: at 1.5 mM; for remaining activity at 2100 µM: tested concentration 2.1 mM; for remaining activity at 2200 µM: tested concentration 2.2 mM; for remaining activity at 2500 µM: tested concentration 2.5 mM; for remaining activity at 1800 µM: tested concentration 1.8 mM; for remaining activity at 3200 µM: tested concentration 3.2 mM; for remaining activity at 2300 µM: tested concentration 2.3 mM; for remaining activity at 2000 µM: tested concentration 2.0 mM; for remaining activity at 1700 µM: tested concentration 1.7 mM
Experimental: The fragment library was assayed in a DdlB inhibition assay, where fragments were tested for their ability to inhibit the D-Ala-adding activity of DdlB ligase. The orthophosphate formed during the enzymatic reaction was measured spectrophotometrically using malachite green reagent.
A recombinant E. coli DdlB enzyme (D-alanine:D-alanine ligase) was expressed in E. coli[11]. […] The final DMSO concentration was 5%. […] All experiments were performed in duplicates. […] IC50 values were determined by measuring the residual activities in quadruplicate at seven different compound concentrations and calculated using in GraphPad Prism (GraphPad Software, San Diego, CA, USA).

[1] = residual activity, read-out: DdlB RA
[2] = at 5 mM, read-out: DdlB inhibition, RA (Residual Activity)
[3] = read-out: DdlB inhibition, RA (Residual Activity)

CN1CCC2(CC1)CN(C1CCC1)Cc1ccccc1O2 [CM3852-0302]
remaining activity at 1900 µM [1]: 86%

N#Cc1ccc(O)cc1F [Compound 00CS-0032]
remaining activity at 3600 µM (residual activity of DdlB, fragment library screening, tested concentration 3.6 mM, read-out: DdlB RA): 94%

O=C(O)c1cnn2c(-c3ccccc3)ccnc12 [Compound 9, 7-Phenylpyrazolo[1,5-a]pyrimidine-3-carboxylic acid]
remaining activity at 5000 µM [2]: 90%

Cc1ccc(-c2ccnc3c(C(=O)O)cnn23)cc1 [Compound 10, 7-(p-Tolyl)pyrazolo[1,5-a]pyrimidine-3-carboxylic acid]
remaining activity at 500 µM [3]: 101%

Cc1ccc(-c2ccnc3c(C(=O)O)cnn23)cc1C [Compound 11, 7–(3,4-Dimethylphenyl)pyrazolo[1,5-a]pyrimidine-3-carboxylic acid]
remaining activity at 500 µM [3]: 100%

O=C(O)c1cnn2c(-c3ccc(Cl)cc3)ccnc12 [Compound 12, 7–(4-Chlorophenyl)pyrazolo[1,5-a]pyrimidine-3-carboxylic acid]
remaining activity at 1000 µM [3]: 90%
remaining activity at 5000 µM [2]: 0%

O=C(O)c1cnn2c(-c3cccc([N+](=O)[O-])c3)ccnc12 [Compound 13, 7–(3-Nitrophenyl)pyrazolo[1,5-a]pyrimidine-3-carboxylic acid]
remaining activity at 500 µM [3]: 89%

O=C(O)c1cnn2c(-c3ccc4c(c3)OCO4)ccnc12 [Compound 14, 7-(Benzo[d][1,3]dioxol-5-yl)pyrazolo[1,5-a]pyrimidine-3-carboxylic acid]
remaining activity at 500 µM [3]: 100%

O=C(O)c1cnn2c(-c3cccs3)ccnc12 [Compound 15, 7-(Thiophen-2-yl)pyrazolo[1,5-a]pyrimidine-3-carboxylic acid]
remaining activity at 1000 µM [3]: 96%

O=C(O)c1cnn2c(-c3ccsc3)ccnc12 [Compound 16, 7-(Thiophen-3-yl)pyrazolo[1,5-a]pyrimidine-3-carboxylic acid]
remaining activity at 500 µM [3]: 89%

Cc1nn(C)cc1-c1ccnc2c(C(=O)O)cnn12 [Compound 17, 7–(1,3-Dimethyl-1H-pyrazol-4-yl)pyrazolo[1,5-a]pyrimidine-3-carboxylic acid]
DdlB dose-response curve shape: Nonsigmoidal curve
remaining activity at 5000 µM [2]: 26%

O=C(O)c1cc2nccc(-c3cccs3)n2n1 [Compound 18, 7-(Thiophen-2-yl)pyrazolo[1,5-a]pyrimidine-2-carboxylic acid]
remaining activity at 1500 µM [3]: 87%
remaining activity at 5000 µM [2]: 69%

O=C(O)c1cc2nccc(-c3ccccc3)n2n1 [Compound 19, 7-Phenylpyrazolo[1,5-a]pyrimidine-2-carboxylic acid]
remaining activity at 1500 µM [3]: 90%
remaining activity at 5000 µM [2]: 50%

CCOC(=O)c1cnn2c(-c3ccc(C)c(C)c3)ccnc12 [Compound 20, Ethyl 7–(3,4-dimethylphenyl)pyrazolo[1,5-a]pyrimidine-3-carboxylate]
remaining activity at 500 µM [3]: 100%

NC(=O)c1cnn2c(-c3ccccc3)ccnc12 [Compound 21, 7-Phenylpyrazolo[1,5-a]pyrimidine-3-carboxamide]
remaining activity at 500 µM [3]: 96%

Cc1cccc(-c2ccnc3c(C#N)cnn23)c1 [Compound 22, 7-(m-Tolyl)pyrazolo[1,5-a]pyrimidine-3-carbonitrile]
remaining activity at 500 µM [3]: 100%

N/C(=N\O)c1cnn2c(-c3cccc(C(F)(F)F)c3)ccnc12 [Compound 23, (Z)-N'-Hydroxy-7–(3-(trifluoromethyl)phenyl)pyrazolo[1,5-a]pyrimidine-3-carboximidamide]
remaining activity at 500 µM [3]: 94%

CCc1ccc(B(O)O)cc1 [Compound 0054-0178]
remaining activity at 3300 µM (tested concentration 3.3 mM, read-out: DdlB RA): 104%

O=S(=O)(O)CCN1CCOCC1 [Compound 0083-0027]
remaining activity at 2600 µM (tested concentration 2.6 mM, read-out: DdlB RA): 91%

O=C(Nc1ccccc1C(=O)O)c1ccccc1 [Compound 0090-0118]
remaining activity at 2100 µM [1]: 101%

CCOC(=O)c1ccccc1S(N)(=O)=O [Compound 0147-0017]
remaining activity at 2200 µM (read-out: DdlB RA): 99%

O=S(=O)(O)CCOc1ccccc1 [Compound 0165-0458]
remaining activity at 2500 µM (read-out: DdlB RA): 100%

O=[N+]([O-])c1cc(S(=O)(=O)O)ccc1Cl [Compound 0195-0016]
remaining activity at 2100 µM (read-out: DdlB RA): 100%

CC1CCOB(O)O1 (stereo not shown) [Compound 0199-0113]
remaining activity at 4300 µM (tested concentration 4.3 mM, read-out: DdlB RA): 89%

O=C(Nc1ccccc1C(=O)O)c1ccccc1Cl [Compound 0342-0148]
remaining activity at 1800 µM [1]: 111%

NS(=O)(=O)c1ccccc1 [Compound 0402-0167]
remaining activity at 3200 µM (read-out: DdlB RA): 96%

CC(=O)Nc1ccc(S(N)(=O)=O)cc1 [Compound 0405-0094]
remaining activity at 2300 µM (read-out: DdlB RA): 87%

Nc1c(Cl)cc(S(N)(=O)=O)cc1Cl [Compound 0772-0030]
remaining activity at 2100 µM (read-out: DdlB RA): 93%

Cc1ccc([N+](=O)[O-])cc1S(=O)(=O)O [Compound 0804-0047]
remaining activity at 2300 µM (read-out: DdlB RA): 93%

CC(C)(C)NS(=O)(=O)c1ccccc1 [Compound 0896-4384]
remaining activity at 2800 µM (tested concentration 2.8 mM, read-out: DdlB RA): 95%

O=C(O)c1ccccc1NC(=O)C(F)(F)F [Compound 0931-0537]
remaining activity at 2100 µM [1]: 104%

Nc1cccc2cccc(S(=O)(=O)O)c12 [Compound 1091-0114]
remaining activity at 2200 µM (read-out: DdlB RA): 81%

OB(O)c1ccc(OCc2ccccc2)c(F)c1 [Compound 1222-0119]
remaining activity at 2000 µM (read-out: DdlB RA): 98%

COc1ccc(B(O)O)cc1F [Compound 1222-0120]
remaining activity at 2900 µM (tested concentration 2.9 mM, read-out: DdlB RA): 93%

OB(O)c1ccc(F)c(F)c1 [Compound 1222-0123]
remaining activity at 3200 µM (read-out: DdlB RA): 88%

Cc1c(N)c(=O)n(-c2ccccc2)n1C [Compound 1254-0226]
remaining activity at 2500 µM (read-out: DdlB RA): 95%

NS(=O)(=O)c1ccc2c(c1)OCCO2 [Compound 1313-0805]
remaining activity at 2300 µM (read-out: DdlB RA): 88%

NC1=NC(=O)CO1 [Compound 1318-0067]
remaining activity at 5000 µM (residual activity of DdlB, fragment library screening, tested concentration 5.0 mM, read-out: DdlB RA): 102%

Cc1ccc2ccc(S(=O)(=O)O)cc2c1 [Compound 1326-0466]
remaining activity at 2200 µM (read-out: DdlB RA): 101%

N#Cc1cccc2cccc(S(=O)(=O)O)c12 [Compound 1326-0564]
remaining activity at 2200 µM (read-out: DdlB RA): 96%

O=C(O)c1cc(S(=O)(=O)N2CCOCC2)ccc1O [Compound 1494-0564]
remaining activity at 1700 µM [1]: 92%

O=C(O)c1ccccc1C(=O)NCc1cccnc1 [Compound 1514-0633]
remaining activity at 2000 µM (fragment library screening, read-out: DdlB RA): 93%

Cc1cccc(OCC(=O)NC(C)C(=O)O)c1 (stereo not shown) [Compound 1683-0903]
remaining activity at 2100 µM (read-out: DdlB RA): 98%

COC(=O)CCC(=O)Nc1ccc(S(N)(=O)=O)cc1 [Compound 1699-0796]
remaining activity at 1700 µM (read-out: DdlB RA): 89%

Cc1ccc(O)c(CCc2ccc(O)cc2)n1 [Compound 1733-0143]
remaining activity at 2100 µM (read-out: DdlB RA): 90%

O=S(=O)(Nc1ccccc1Cl)c1ccc(F)cc1 [Compound 1763-0763]
remaining activity at 1900 µM [1]: 115%

CC(=O)NCCc1ccc(S(N)(=O)=O)cc1 [Compound 2332-0866]
remaining activity at 2100 µM (read-out: DdlB RA): 94%

Cc1ccc(S(=O)(=O)N2CCOCC2)c(C)c1 [Compound 2488-0460]
remaining activity at 2200 µM (read-out: DdlB RA): 90%

Cc1cc(N)n(-c2ccc(S(=O)(=O)O)cc2)n1 [Compound 2991-0739]
remaining activity at 2000 µM (read-out: DdlB RA): 97%

Oc1nnc(-c2ccccc2)c(-c2ccccc2)n1 [Compound 3039-0046]
remaining activity at 2000 µM [1]: 104%

COc1ccc2[nH]c(S(=O)(=O)O)nc2c1 [Compound 3260-0314]
remaining activity at 2200 µM (read-out: DdlB RA): 91%

CCC([N+](=O)[O-])C1(O)C(=O)Nc2ccccc21 (stereo not shown) [Compound 3817-0017]
remaining activity at 2100 µM [1]: 95%

COC(=O)c1ccc(S(=O)(=O)O)o1 [Compound 4055-0046]
remaining activity at 2400 µM (tested concentration 2.4 mM, read-out: DdlB RA): 102%

Cc1ccc2nc(C)c(CN3CCCCC3C)c(O)c2c1 (stereo not shown) [Compound 4300-0248]
remaining activity at 1800 µM [1]: 87%

From publication PMC9718554, “Discovery of a fragment hit compound targeting D-Ala:D-Ala ligase of bacterial peptidoglycan biosynthesis” (Journal of Enzyme Inhibition and Medicinal Chemistry, 2022)
